Measured values taken from patent US9272034B2, “Treatment of conditions related to shock” (The Regents of the University of California, priority 2007, dated 2016).

How the values were obtained:
hemorrhagic shock [1] = test: Enteroclysis with digestive protease blockade in porcine hemorrhagic shock; assay type: in vivo, pigs
Method: The inventors examined the utility of intestinal lavage in a porcine model of hemorrhagic shock. An objective of this study was to determine the effect of digestive protease blockade in the lumen of the intestine during hemorrhagic shock. The animals (16 pigs) were subjected to a shock that mimics clinical events. Pigs were bled 30 ml/kg over 30 minutes and maintained at a mean arterial pressure of 30 mmHg for 60 minutes and shed blood was then used to maintain a pressure of 45 mmHg for three hours.

[2] = system: pancreatic digestive enzymes; test: Enzyme inhibitors administered directly into the circulation (i.v., i.a., i.m.) in shock; assay type: in vivo; conditions: administered directly into the circulation (i.v., i.a., i.m.) instead of the lumen of the intestine
Method: From a mechanistic point of view, an important feature is the fact that the significant protection rendered by the inhibition of pancreatic digestive enzymes is only provided if the enzymes are blocked inside the lumen of the intestine. […] This observation supports the hypothesis that digestive enzymes in the lumen of the intestine—where they are fully activated and in high concentrations—are the major enzymes in acute intestinal ischemia. They produce inflammatory mediators that are carried towards the central circulation via the portal venous system, but also via the intestinal lymphatics.

Hemorrhagic Shock [3] = test: Long-term survival, hemorrhagic shock with intra-intestinal enzyme blockade; assay type: in vivo, rat; conditions: ANGD 0.37 mM, 15 ml into intestinal lumen at 1 hour after hypotension; two weeks observation; P < 0.01
Method: (§1) A study of the long term survival after blockade of digestive enzymes provided further support to the findings. In preparation for this application the inventors carried out pilot studies in the rat with (a) hemorrhagic, (b) endotoxic and (c) cecal ligation shock, followed by an observation period for two weeks until normal cage activities were recorded in survivors. Without food restriction, in hemorrhagic shock the mean blood pressure was reduced for two hours to 35 mmHg followed by return of all blood volume but no further resuscitation. The digestive enzymes were blocked at 1 hour after hypotension by direct infusion of ANGD (0.37 mM, 15 ml) into the intestinal lumen after a temporary exposure via a midline incision. In endotoxic shock, the rats received gram-negative endotoxin (5 mg/kg, i.v.); the digestive enzymes were blocked in the same way at 1 hour after endotoxin administration. No other agent was administered. In cecal ligation shock both the digestive enzymes in the lumen of the intestine as well as inside the peritoneum were blocked with ANGD. […] In contrast to untreated controls, all treated survivors returned after anesthesia within hours to normal activity (walking, climbing, grooming, drinking, eating, bowel movements) and within 3 days to normal weight gain. […]

Endotoxic Shock = test: Long-term survival, endotoxic shock with intra-intestinal enzyme blockade; assay type: in vivo, rat; conditions: endotoxin 5 mg/kg i.v.; blockade at 1 hour; two weeks observation; P < 0.004
Method: as §1

Cecal Lig. Shock = test: Long-term survival, cecal ligation shock with blockade in intestinal lumen and peritoneum; assay type: in vivo, rat; conditions: for survival rate (survivors/treated): alternative serine protease inhibitors
Method: (§2) A study of the long term survival after blockade of digestive enzymes provided further support to the findings. In preparation for this application the inventors carried out pilot studies in the rat with (a) hemorrhagic, (b) endotoxic and (c) cecal ligation shock, followed by an observation period for two weeks until normal cage activities were recorded in survivors. Without food restriction, in hemorrhagic shock the mean blood pressure was reduced for two hours to 35 mmHg followed by return of all blood volume but no further resuscitation. The digestive enzymes were blocked at 1 hour after hypotension by direct infusion of ANGD (0.37 mM, 15 ml) into the intestinal lumen after a temporary exposure via a midline incision. In endotoxic shock, the rats received gram-negative endotoxin (5 mg/kg, i.v.); the digestive enzymes were blocked in the same way at 1 hour after endotoxin administration. No other agent was administered. In cecal ligation shock both the digestive enzymes in the lumen of the intestine as well as inside the peritoneum were blocked with ANGD. […] In contrast to untreated controls, all treated survivors returned after anesthesia within hours to normal activity (walking, climbing, grooming, drinking, eating, bowel movements) and within 3 days to normal weight gain. Furthermore, treatment with alternative serine protease inhibitors (CYCLOKAPRON, tranexamic acid; TRASYLOL, aprotinin) in cecal ligation shock gave significant survival rates (5/5 rats, P<0.0079; 4/5 rats, P<0.02, respectively).

[4] = system: hemorrhagic, endotoxic and cecal ligation shock; test: Long-term survival pilot studies, observations stated for all three shock models together; assay type: in vivo, rat
Method: as §2

[5] = system: plasma enzymatic activity (cleavage of the extracellular domain of the insulin receptor); test: Shock plasma protease activity cleaving the insulin receptor extracellular domain on donor cells; assay type: cell-based; conditions: plasma of rats in hemorrhagic shock collected at 4 hours; results not shown
Method: It was further shown that plasma of shock rats has protease activity and causes cleavage of the extracellular domain of the insulin receptor, E-cadherin, and CAT-1. In all forms of shock there is consistently proteolytic activity in plasma. Therefore the inventors investigated the ability of central venous plasma of rats in hemorrhagic shock (collected at 4 hours) to cleave the extracellular domain of the insulin receptor a by using an antibody against the extracellular binding domain of insulin combined with membrane receptor density measurements. Exposure of normal donor cells to plasma from shock rats, but not to plasma of control rats, causes extensive cleavage of the insulin binding domain. Furthermore, this cleavage causes also a reduction of the glucose transport into the cell cytoplasm. […] There is also a significant cleavage of the extracellular domain of the tight junction protein E-cadherin in intestinal epithelium and CAT-1 in leukocytes.

hemorrhagic shock [6] = test: Survival of lab rodents in hemorrhagic shock given basic shock care with or without inhibitor; assay type: in vivo; conditions: 10 of 19 rodents treated; one of nine untreated survived
Text: The researchers then began animal studies. The present invention is based on the latest research using rodent models of human hemorrhagic shock. Here it has been discovered that the sudden lowering of blood pressure that occurs in people suffering from […] can provoke the body's digestive enzymes to break down the body's own intestinal tissue as if it were food. Such enzymes' abnormal actions may be defined as “auto-digestion.” Auto-digestion is dangerous because not only does it injure healthy tissue but also contributes to multi-organ failure, which can be fatal.
The healthy cells of the animals' intestinal tissue react to auto-digestion by releasing a slew of substances that can be toxic to the heart and other body organs. These substances, termed cytotoxic mediators, can reach these body organs via the blood stream. In their latest studies, shock was induced in 19 lab rodents, all of which were then treated with therapies that mirror the emergency room care given to many human patients who suffer shock, which typically occurs when blood flow to the heart, lungs and other body organs is slowed as a result of trauma, dehydration, heart attack or stroke.
A total of 10 of the 19 lab rodents in shock were also treated with the experimental digestive enzyme inhibitor called ANGD. […] However, only one of the nine “untreated” animals in shock survived. […]

[7] = system: superior mesenteric artery occlusion (SMAO)-induced shock; test: Delayed intestinal lavage with protease inhibitor during reperfusion after SMAO; assay type: in vivo, Male Wistar rats
Text: In one series of experiments, the inventors discovered that delayed inhibition of digestive enzymes in the lumen of the intestine reduces inflammatory markers after shock. As a clinically relevant situation, the inventors examined the effectiveness of a delayed intestinal protease inhibition during reperfusion after SMAO. […] Intestinal ischemia-induced endotoxemia was prevented by digestive enzyme inhibition.
In summary, delayed intestinal protease inhibition serves to improve experimental SMAO-induced shock by reducing intestinal injury, the level of cell activation in plasma and in the microcirculation, and by restoring the blood pressure.

[8] = system: intestinal ischemia-induced shock; test: Intra-intestinal pancreatic protease inhibition in intestinal ischemia and reperfusion (SMAO); assay type: in vivo
Text: These experiments were designed to examine whether inflammatory mediators generated in the intestine by digestive enzymes are released early into the circulation and may contribute to the severe systemic inflammatory response syndrome during shock, a condition that involves the microcirculation in peripheral organs. Intestinal ischemia and reperfusion-induced hypotension upon reperfusion was accompanied by a significant increase in the level of neutrophil activating factors in the intestine and plasma. During reperfusion a significant increase in leukocyte-endothelium interactions in post-capillary venules and parenchymal cell death are observed in the cremaster muscle in controls after SMAO. […] In addition, ischemia-induced intestinal mucosal injury is attenuated with intestinal pancreatic protease inhibition.

[9] = system: septic shock with a lethal dose of endotoxin; test: Intra-luminal lavage after lethal dose of endotoxin (septic shock); assay type: in vivo, rat; conditions: endotoxin 4 mg/kg i.v.
Text: Sepsis is accompanied by severe inflammation whose mechanism remains uncertain. The inventors examined the possibility that pancreatic digestive enzymes may also be involved in inflammation in an experimental form of septic shock with a lethal dose of endotoxin in the rat. Immediately after intravenous endotoxin administration, the small intestine was subjected to intra-luminal lavage with and without an inhibitor of pancreatic digestive proteases (FOY, gabexate mesilate). After endotoxin administration (4 mg/kg, gram-negative), control rats developed hypotension, tachycardia, hyperventilation and leukopenia. The intestine and plasma contained mediators that activated leukocytes. The leukocyte-endothelial interaction within the cremaster muscle microcirculation was enhanced. […] These experiments indicate that inflammatory mediators derived from the intestine by digestive proteases may be involved in the prolonged inflammatory response and may sustain symptoms of sepsis after an endotoxin challenge. A bolus administration of endotoxin causes a transient inflammation response and elevated intestinal permeability. But the sustained inflammation that leads to multi-organ failure in this situation is caused by auto-digestion due to escape of pancreatic digestive enzymes from the lumen of the intestine due to the elevated mucosal permeability.

[10] = system: cytotoxic factors (free fatty acids) of intestinal homogenates; test: Cell death caused by rat small intestine homogenates; assay type: cell-based; conditions: homogenization of intestinal wall in the presence of the inhibitor
Text: Breakdown of free fatty acid binding proteins by proteases causes release of free fatty acids to act as powerful cytotoxic mediators.

septic shock = conditions: FDA approved treatment; more recent trials could not confirm the effectiveness; cited from earlier work
[11] = 100 ml/kg of 0.37 mM in GOLYTELY via duodenal catheter
[12] = blockade in lumen of intestine and peritoneum, two weeks observation, P < 0.001
[13] = FOY 0.37 mM, delayed lavage at 40 min after reperfusion

## N=C(N)c1ccc2cc(OC(=O)c3ccc(N=C(N)N)cc3)ccc2c1 [ANGD, 6-amidino-2-naphthyl p-guanidobenzoate dimethane-sulfate]
Hemorrhagic shock [1]; [11]
  protease activity in the intestinal lumen and in plasma throughout the experiment: persistent suppression
  protein and protease levels in the duodenum during enteroclysis: significant reductions
Hemorrhagic shock [1]; p=0.04
  leukocyte infiltration into the lung: lower in treated than control animals
Hemorrhagic shock [1]; pig, in vivo
  liver and small intestine injury: less injury
Hemorrhagic shock [1]; versus 30±0.43 ml/kg in controls, p=0.002
  transfusion requirement of shed blood: 18.1 ± 4.5 mL/kg
Hemorrhagic shock [1]; versus 46.9±4.5% in controls, p=0.0002
  level of neutrophil activation after resuscitation: 31.1±3.3%
[2]
  protection against inflammation in shock: less, and in some cases no protection
Hemorrhagic Shock [3]
  Non-Survivor: 2 number of rats
  Survivor: 10 number of rats
Endotoxic Shock
  Non-Survivor: 1 number of rats
  Survivor: 10 number of rats
Cecal Lig. Shock; [12]
  Non-Survivor: 1 number of rats
  Survivor: 9 number of rats
[4]; in each shock model
  survival rate versus untreated controls: significantly enhanced survival rate
[4]; rat, in vivo
  return of treated survivors to normal weight gain: ≤ 3 days
[4]; walking, climbing, grooming, drinking, eating, bowel movements
  return of treated survivors to normal activity after anesthesia: within hours
[5]
  block of plasma enzymatic activity: more than 50%
Hemorrhagic shock [6]
  survival (survivors of treated animals): Eight of the ten

## NC[C@H]1CC[C@H](C(=O)O)CC1 [CYCLOKAPRON, tranexamic acid]
Cecal Lig. Shock
  survival rate (survivors/treated): 5/5

## CCOC(=O)c1ccc(OC(=O)CCCCCN=C(N)N)cc1.CS(=O)(=O)O [FOY, gabexate mesilate]
[7]; [13]
  formation of intestine-derived leukocyte activation factors: decreased formation
  intestinal injury: decreased
[7]; FOY 0.37 mM, delayed lavage at 40 min after reperfusion, SMAO 100 min
  blood pressure: highly significant restoration of the initial blood pressure before shock
[7]; cremaster muscle microcirculation
  leukocytes adhesion in post-capillary venules: lower leukocytes adhesion
[7]; rat, in vivo
  cell death in the cremaster muscle microcirculation: reduced cell death
  intestinal ischemia-induced endotoxemia: prevented
[8]; cremaster muscle
  leukocyte-endothelial interactions (rolling and firm adhesion to the endothelium): almost completely abolished
[8]; in vivo
  cell death (propidium iodine labeling) in the cremaster muscle: almost completely abolished
  ischemia-induced intestinal mucosal injury: attenuated
[8]; intra-intestinal, 0.37 mM
  blood pressure: stable blood pressure throughout the experiment
  cell activation: almost completely abolished
[9]
  cell injury in peripheral skeletal muscle microcirculation: reduces
  indices of inflammation in plasma: reduces all indices
[9]; intra-luminal lavage immediately after
  hemodynamic parameters: significantly improved

## CCCCCCCCCCC[C@@H](C[C@@H]1OC(=O)[C@H]1CCCCCC)OC(=O)[C@H](CC(C)C)NC=O [orlistat]
[10]
  cell death after protease digestion: prevented cell death

## aprotinin [TRASYLOL]
[2]
  protection against inflammation in shock: less, and in some cases no protection
Cecal Lig. Shock
  survival rate (survivors/treated): 4/5

## drotrecogin alfa (activated) [XIGRIS]
Septic shock
  survival benefit: minor but confirmed survival benefit
